# Patent publication US9233095B2, “Small molecule RNase inhibitors and methods of use” (University of Rochester, priority 2011, dated 2016)
# Columns and labels:
# [1] = system: S. aureus (MSSA); assay: CLSI broth microdilution MIC; type: cell-based, Staphylococcus aureus; conditions: strain UAMS-1, the strain's MIC used for time-kill assays
# From the text: In some examples, compounds can be further assayed using the Mueller Hinton (MH) broth antibacterial assay as specified by the Clinical and Laboratory Standards Institute MIC broth microdilution protocol (see Methods for Dilution Antimicrobial Susceptibility Tests for Bacteria That Grow Aerobically; Approved Standard, In The Clinical and Laboratory Standards Institute (CLSI, formerly NCCLS), 7th ed., January 2006, 26 (2), M7-A7; see also Performance Standards for Antimicrobial Susceptibility Testing; Eighteenth Informational Supplement, In The Clinical and Laboratory Standards Institute (CLSI, formerly NCCLS), January 2008, 28 (1), M100-S18).
# With the exception of RN4220-derivatives, in vitro activities of RNPA1000 against bacteria were determined by the broth microdilution method according to the Clinical and Laboratory Standards Institute (CLSI) guidelines using cation adjusted Mueller-Hinton broth or MH broth supplemented with 5% lysed horse blood (for testing Streptotococcus spp.). Microtiter plates containing serial dilutions of RNPA1000 (0, 4, 8, 16, 32, 64, and 128 μg/ml) were inoculated with 10^5 colony forming units (CFU)/ml and incubated for 18 hr at 37° C. […] The MIC value for each S. aureus strain was determined to be the median score of replicate measurements (n=5). Wells containing concentrations of RNPA1000≧MIC were plated for minimal bactericidal measurement. Where possible, experiments with VRSA strains were performed in a laminar flow hood to minimize potential for equipment contamination. For RN4220 cells containing plasmid vector (pCN51), RnpA overproducing plasmid (pRNPA-S) or RnpA underproducing plasmid (pRNPA-A.S.) in vitro antimicrobial activity of RNPA1000 was performed by the microdilution method as described above, except that cells were grown in Tryptic Soy Broth medium supplemented with 2.5 μM CdCl2 and 0, 1, 2, 4, 8, 16, 32, 64, or 128 μg/ml RNPA1000. Time-kill assays were also performed to monitor the antimicrobial properties of RNPA1000 for S. aureus strain UAMS-1 in the absence and presence of 0.25, 0.5, 2, and 4 times the strain's MIC for oxacillin (1 μg/ml), rifampicin (0.5 μg/ml), vancomycin (2 μg/ml), or daptomycin (1 μg/ml). The indicated amount of RNPA1000 and/or commercial antibiotic were added to mid-exponential phase (2×10^8 cfu/ml) S. aureus strain UAMS-1 cells and incubated at 37° C. Aliquots were removed at 0, 2, 4, 8, and 24 hr post-antimicrobial challenge, serial diluted, and plated to enumerate resulting cfu/ml. All time-kill assays were repeated at least 3 times.
# [2] = system: biofilm-associated S. aureus strain UAMS-1; conditions: Weiss et al. 2009, cited from earlier work; for clearance of biofilm-associated S. aureus: 20× MIC over 3 days; for maximal decrease in biofilm-associated bacteria: same model and conditions
# [3] = system: S. aureus strain Smith; assay: acute lethal model of infection; type: in vivo, CD-1 mice; conditions: 5 days
# Procedure: Because RNPA1000 was not toxic during short- and only mildly toxic during extended-HepG2 exposure, it could serve as an appropriate tool to assess whether RnpA-inhibitory molecules are efficacious in a systemic mouse infection model. […] RNPA1000 was solubilized in 1:1 mixture of DMSO and PEG400; Vancomycin was prepared in water. Animals (5/dose group) were administered 16, 64, and 256 mg/kg or 0.25, 1, 4, and 16 mg/kg of RNPA1000 or Vancomycin, respectively, at 30 min post infection by subcutaneous injection (0.2 ml). The percent surviving animals receiving no treatment, a single dose of Vancomycin, or RnpA-inhibitor was recorded daily over the course of the study (5 days).
# Percent survival refers to a consensus of surviving animals following 5 days post-intraperitoneal S. aureus injection and RNPA1000 administration. The number in parentheses indicates the number of times the experiment was repeated. Each member of non-treated control mice expired within 24 hr bacterial inoculation (0 mg/kg). Vancomycin served as a positive control.
Structure (SMILES),MIC of commercial antibiotic [1] [µg/mL],clearance of biofilm-associated S. aureus [2],maximal decrease in biofilm-associated bacteria [2] [log],% Survival ([3]; Vancomycin 0.25 mg/kg s.c.) [%],% Survival ([3]; Vancomycin 1 mg/kg s.c.) [%],% Survival ([3]; Vancomycin 4 mg/kg s.c.) [%],% Survival ([3]; Vancomycin 16 mg/kg s.c.) [%]
CCCCCCCCCC(=O)N[C@@H](Cc1c[nH]c2ccccc12)C(=O)N[C@H](CC(N)=O)C(=O)N[C@@H](CC(=O)O)C(=O)N[C@@H]1C(=O)NCC(=O)N[C@@H](CCCN)C(=O)N[C@@H](CC(=O)O)C(=O)N[C@H](C)C(=O)N[C@@H](CC(=O)O)C(=O)NCC(=O)N[C@H](CO)C(=O)N[C@@H]([C@H](C)CC(=O)O)C(=O)N[C@@H](CC(=O)c2ccccc2N)C(=O)O[C@@H]1C [daptomycin],1,none of these antibiotics cleared,6,,,,
CO[C@H]1/C=C/O[C@@]2(C)Oc3c(C)c(O)c4c(O)c(c(/C=N/N5CCN(C)CC5)c(O)c4c3C2=O)NC(=O)/C(C)=C\C=C\[C@H](C)[C@H](O)[C@@H](C)[C@@H](O)[C@@H](C)[C@H](OC(C)=O)[C@@H]1C [rifampicin],0.5,,,,,,
Cc1onc(-c2ccccc2)c1C(=O)N[C@@H]1C(=O)N2[C@@H]1SC(C)(C)[C@@H]2C(=O)O [oxacillin],1,,,,,,
CC(=O)NC[C@H]1CN(c2ccc(N3CCOCC3)c(F)c2)C(=O)O1 [linezolid],,none of these antibiotics cleared,5,,,,
"CN[C@H](CC(C)C)C(=O)N[C@H]1C(=O)N[C@@H](CC(N)=O)C(=O)N[C@H]2C(=O)N[C@H]3C(=O)N[C@H](C(=O)N[C@H](C(=O)O)c4cc(O)cc(O)c4-c4cc3ccc4O)[C@H](O)c3ccc(c(Cl)c3)Oc3cc2cc(c3O[C@@H]2O[C@H](CO)[C@@H](O)[C@H](O)[C@H]2O[C@H]2C[C@](C)(N)[C@H](O)[C@H](C)O2)Oc2ccc(cc2Cl)[C@H]1O [Vancomycin, vancomycin, reference compound]",2,none of these antibiotics cleared,4,0,100,100,100
